From ChEMBL document CHEMBL4138175, “Newly designed organotin(IV) carboxylates with peptide linkage: Synthesis, structural elucidation, physicochemical characterizations and pharmacological investigations” (Eur J Med Chem, 2018)
Calls of active or inactive are those of the source. The calls are words filed in the database; no cut-off is given here.

These substances were tested on NCI-H157 (assay: Cytotoxicity against human NCI-H157 cells at 100 uM after 48 hrs by sulforhodamine B assay).
Format: functional

Row | Substance | Activity
1 | Dioctylstannanediyl bis 2-(4-methoxy-2-nitrophenylcarbamoyl)benzoate | 63.7%
2 | Divinylstannanediyl bis 2-(4-methoxy-2-nitrophenylcarbamoyl)benzoate | 64.3%

These substances were tested on NCI-H157 (assay: Cytotoxicity against human NCI-H157 cells at 10 uM after 48 hrs by sulforhodamine B assay).
Format: functional

Row | Substance | Activity
3 | Dioctylstannanediyl bis 2-(4-methoxy-2-nitrophenylcarbamoyl)benzoate | 59.1%
4 | Divinylstannanediyl bis 2-(4-methoxy-2-nitrophenylcarbamoyl)benzoate | 61%

Each substance was assayed on NCI-H157 (assay: Cytotoxicity against human NCI-H157 cells at 1 uM after 48 hrs by sulforhodamine B assay).
Format: functional

Row | Substance | Activity
5 | Dioctylstannanediyl bis 2-(4-methoxy-2-nitrophenylcarbamoyl)benzoate | 54.3%
6 | Divinylstannanediyl bis 2-(4-methoxy-2-nitrophenylcarbamoyl)benzoate | 58.3%

What follows are substances tested on NCI-H157 (assay: Cytotoxicity against human NCI-H157 cells at 0.1 uM after 48 hrs by sulforhodamine B assay).
Format: functional

Row | Substance | Activity
7 | Dioctylstannanediyl bis 2-(4-methoxy-2-nitrophenylcarbamoyl)benzoate | 48.9%
8 | Divinylstannanediyl bis 2-(4-methoxy-2-nitrophenylcarbamoyl)benzoate | 55.4%

These substances were tested on Leishmania major (assay: Antileishmanial activity against Leishmania major promastigotes at 100 uM after 72 hrs by MTT assay relative to control).
Format: functional

Row | Substance | Activity
9 | Dioctylstannanediyl bis 2-(4-methoxy-2-nitrophenylcarbamoyl)benzoate | 58.8%
10 | Divinylstannanediyl bis 2-(4-methoxy-2-nitrophenylcarbamoyl)benzoate | 60.9%

What follows are substances tested on Leishmania major (assay: Antileishmanial activity against Leishmania major promastigotes at 10 uM after 72 hrs by MTT assay relative to control).
Format: functional

Row | Substance | Activity
11 | Dioctylstannanediyl bis 2-(4-methoxy-2-nitrophenylcarbamoyl)benzoate | 55.2%
12 | Divinylstannanediyl bis 2-(4-methoxy-2-nitrophenylcarbamoyl)benzoate | 55.4%

These substances were tested on Leishmania major (assay: Antileishmanial activity against Leishmania major promastigotes at 1 uM after 72 hrs by MTT assay relative to control).
Format: functional

Row | Substance | Activity
13 | Dioctylstannanediyl bis 2-(4-methoxy-2-nitrophenylcarbamoyl)benzoate | 47.1%
14 | Divinylstannanediyl bis 2-(4-methoxy-2-nitrophenylcarbamoyl)benzoate | 48.8%

The substances below were run on Leishmania major (assay: Antileishmanial activity against Leishmania major promastigotes at 0.1 uM after 72 hrs by MTT assay relative to control).
Format: functional

Row | Substance | Activity
15 | Dioctylstannanediyl bis 2-(4-methoxy-2-nitrophenylcarbamoyl)benzoate | 42.9%
16 | Divinylstannanediyl bis 2-(4-methoxy-2-nitrophenylcarbamoyl)benzoate | 43.3%

What follows are substances tested on Klebsiella pneumoniae (assay: Antibacterial activity against Klebsiella pneumoniae assessed as zone of inhibition after 24 to 48 hrs by well diffusion method).
Format: functional

Row | Substance | inhibition zone (IZ)
17 | Dioctylstannanediyl bis 2-(4-methoxy-2-nitrophenylcarbamoyl)benzoate | 22.3 mm
18 | Divinylstannanediyl bis 2-(4-methoxy-2-nitrophenylcarbamoyl)benzoate | inactive

What follows are substances tested on Streptococcus pyogenes (assay: Antibacterial activity against Streptococcus pyogenes assessed as zone of inhibition after 24 to 48 hrs by well diffusion method).
Format: functional

Row | Substance | inhibition zone (IZ)
19 | Dioctylstannanediyl bis 2-(4-methoxy-2-nitrophenylcarbamoyl)benzoate | 12 mm
20 | Divinylstannanediyl bis 2-(4-methoxy-2-nitrophenylcarbamoyl)benzoate | inactive

Each substance was assayed on Staphylococcus epidermidis (assay: Antibacterial activity against Staphylococcus epidermidis assessed as zone of inhibition after 24 to 48 hrs by well diffusion method).
Format: functional

Row | Substance | inhibition zone (IZ)
21 | Dioctylstannanediyl bis 2-(4-methoxy-2-nitrophenylcarbamoyl)benzoate | 11.3 mm
22 | Divinylstannanediyl bis 2-(4-methoxy-2-nitrophenylcarbamoyl)benzoate | 14.2 mm

What follows are substances tested on Staphylococcus aureus (assay: Antibacterial activity against Staphylococcus aureus assessed as zone of inhibition after 24 to 48 hrs by well diffusion method).
Format: functional

Row | Substance | inhibition zone (IZ)
23 | Dioctylstannanediyl bis 2-(4-methoxy-2-nitrophenylcarbamoyl)benzoate | inactive
24 | Divinylstannanediyl bis 2-(4-methoxy-2-nitrophenylcarbamoyl)benzoate | inactive

The substances below were run on Serratia marcescens (assay: Antibacterial activity against Serratia marcescens assessed as zone of inhibition after 24 to 48 hrs by well diffusion method).
Format: functional

Row | Substance | inhibition zone (IZ)
25 | Dioctylstannanediyl bis 2-(4-methoxy-2-nitrophenylcarbamoyl)benzoate | 5 mm
26 | Divinylstannanediyl bis 2-(4-methoxy-2-nitrophenylcarbamoyl)benzoate | 11 mm

What follows are substances tested on Pseudomonas aeruginosa (assay: Antibacterial activity against Pseudomonas aeruginosa assessed as zone of inhibition after 24 to 48 hrs by well diffusion method).
Format: functional

Row | Substance | inhibition zone (IZ)
27 | Dioctylstannanediyl bis 2-(4-methoxy-2-nitrophenylcarbamoyl)benzoate | inactive
28 | Divinylstannanediyl bis 2-(4-methoxy-2-nitrophenylcarbamoyl)benzoate | inactive

The substances below were run on Escherichia coli (assay: Antibacterial activity against Escherichia coli assessed as zone of inhibition after 24 to 48 hrs by well diffusion method).
Format: functional

Row | Substance | inhibition zone (IZ)
29 | Dioctylstannanediyl bis 2-(4-methoxy-2-nitrophenylcarbamoyl)benzoate | inactive
30 | Divinylstannanediyl bis 2-(4-methoxy-2-nitrophenylcarbamoyl)benzoate | inactive

Each substance was assayed on Klebsiella pneumoniae (assay: Antibacterial activity against Klebsiella pneumoniae assessed as zone of inhibition by measuring activity index after 24 to 48 hrs by well diffusion method relative to tetracycline).
Format: functional, organism-based

Row | Substance | Activity index
31 | Dioctylstannanediyl bis 2-(4-methoxy-2-nitrophenylcarbamoyl)benzoate | 1.59

The substances below were run on Klebsiella pneumoniae (assay: Antibacterial activity against Klebsiella pneumoniae assessed as zone of inhibition by measuring activity index after 24 to 48 hrs by well diffusion method relative to penicillin G).
Format: functional, organism-based

Row | Substance | Activity_index
32 | Divinylstannanediyl bis 2-(4-methoxy-2-nitrophenylcarbamoyl)benzoate | inactive

Each substance was assayed on Klebsiella pneumoniae (assay: Antibacterial activity against Klebsiella pneumoniae assessed as zone of inhibition by measuring activity index after 24 to 48 hrs by well diffusion method relative to ampicillin).
Format: functional, organism-based

Row | Substance | Activity index
33 | Dioctylstannanediyl bis 2-(4-methoxy-2-nitrophenylcarbamoyl)benzoate | 3.72

These substances were tested on Klebsiella pneumoniae (assay: Antibacterial activity against Klebsiella pneumoniae assessed as zone of inhibition by measuring activity index after 24 to 48 hrs by well diffusion method relative to amoxicillin).
Format: functional, organism-based

Row | Substance | Activity index
34 | Dioctylstannanediyl bis 2-(4-methoxy-2-nitrophenylcarbamoyl)benzoate | 3.72

The substances below were run on Streptococcus pyogenes (assay: Antibacterial activity against Streptococcus pyogenes assessed as zone of inhibition by measuring activity index after 24 to 48 hrs by well diffusion method relative to tetracycline).
Format: functional, organism-based

Row | Substance | Activity_index
35 | Divinylstannanediyl bis 2-(4-methoxy-2-nitrophenylcarbamoyl)benzoate | inactive

These substances were tested on Streptococcus pyogenes (assay: Antibacterial activity against Streptococcus pyogenes assessed as zone of inhibition by measuring activity index after 24 to 48 hrs by well diffusion method relative to penicillin G).
Format: functional, organism-based

Row | Substance | Activity_index
36 | Divinylstannanediyl bis 2-(4-methoxy-2-nitrophenylcarbamoyl)benzoate | inactive

What follows are substances tested on Streptococcus pyogenes (assay: Antibacterial activity against Streptococcus pyogenes assessed as zone of inhibition by measuring activity index after 24 to 48 hrs by well diffusion method relative to ampicillin).
Format: functional, organism-based

Row | Substance | Activity_index
37 | Divinylstannanediyl bis 2-(4-methoxy-2-nitrophenylcarbamoyl)benzoate | inactive

Each substance was assayed on Streptococcus pyogenes (assay: Antibacterial activity against Streptococcus pyogenes assessed as zone of inhibition by measuring activity index after 24 to 48 hrs by well diffusion method relative to amoxicillin).
Format: functional, organism-based

Row | Substance | Activity_index
38 | Divinylstannanediyl bis 2-(4-methoxy-2-nitrophenylcarbamoyl)benzoate | inactive

The substances below were run on Staphylococcus epidermidis (assay: Antibacterial activity against Staphylococcus epidermidis assessed as zone of inhibition by measuring activity index after 24 to 48 hrs by well diffusion method relative to tetracycline).
Format: functional, organism-based

Row | Substance | Activity index
39 | Dioctylstannanediyl bis 2-(4-methoxy-2-nitrophenylcarbamoyl)benzoate | 1.13
40 | Divinylstannanediyl bis 2-(4-methoxy-2-nitrophenylcarbamoyl)benzoate | 1.42

These substances were tested on Staphylococcus epidermidis (assay: Antibacterial activity against Staphylococcus epidermidis assessed as zone of inhibition by measuring activity index after 24 to 48 hrs by well diffusion method relative to amoxicillin).
Format: functional, organism-based

Row | Substance | Activity index
41 | Dioctylstannanediyl bis 2-(4-methoxy-2-nitrophenylcarbamoyl)benzoate | 5.67
42 | Divinylstannanediyl bis 2-(4-methoxy-2-nitrophenylcarbamoyl)benzoate | 7.11

These substances were tested on Staphylococcus aureus (assay: Antibacterial activity against Staphylococcus aureus assessed as zone of inhibition by measuring activity index after 24 to 48 hrs by well diffusion method relative to tetracycline).
Format: functional, organism-based

Row | Substance | Activity_index
43 | Dioctylstannanediyl bis 2-(4-methoxy-2-nitrophenylcarbamoyl)benzoate | inactive
44 | Divinylstannanediyl bis 2-(4-methoxy-2-nitrophenylcarbamoyl)benzoate | inactive

What follows are substances tested on Staphylococcus aureus (assay: Antibacterial activity against Staphylococcus aureus assessed as zone of inhibition by measuring activity index after 24 to 48 hrs by well diffusion method relative to penicillin G).
Format: functional, organism-based

Row | Substance | Activity_index
45 | Dioctylstannanediyl bis 2-(4-methoxy-2-nitrophenylcarbamoyl)benzoate | inactive
46 | Divinylstannanediyl bis 2-(4-methoxy-2-nitrophenylcarbamoyl)benzoate | inactive

The substances below were run on Staphylococcus aureus (assay: Antibacterial activity against Staphylococcus aureus assessed as zone of inhibition by measuring activity index after 24 to 48 hrs by well diffusion method relative to ampicillin).
Format: functional, organism-based

Row | Substance | Activity_index
47 | Dioctylstannanediyl bis 2-(4-methoxy-2-nitrophenylcarbamoyl)benzoate | inactive
48 | Divinylstannanediyl bis 2-(4-methoxy-2-nitrophenylcarbamoyl)benzoate | inactive

These substances were tested on Staphylococcus aureus (assay: Antibacterial activity against Staphylococcus aureus assessed as zone of inhibition by measuring activity index after 24 to 48 hrs by well diffusion method relative to amoxicillin).
Format: functional, organism-based

Row | Substance | Activity_index
49 | Dioctylstannanediyl bis 2-(4-methoxy-2-nitrophenylcarbamoyl)benzoate | inactive
50 | Divinylstannanediyl bis 2-(4-methoxy-2-nitrophenylcarbamoyl)benzoate | inactive

These substances were tested on Serratia marcescens (assay: Antibacterial activity against Serratia marcescens assessed as zone of inhibition by measuring activity index after 24 to 48 hrs by well diffusion method relative to penicillin G).
Format: functional

Row | Substance | Activity index
51 | Dioctylstannanediyl bis 2-(4-methoxy-2-nitrophenylcarbamoyl)benzoate | 0.63
52 | Divinylstannanediyl bis 2-(4-methoxy-2-nitrophenylcarbamoyl)benzoate | 1.37

These substances were tested on Serratia marcescens (assay: Antibacterial activity against Serratia marcescens assessed as zone of inhibition by measuring activity index after 24 to 48 hrs by well diffusion method relative to ampicillin).
Format: functional

Row | Substance | Activity index
53 | Dioctylstannanediyl bis 2-(4-methoxy-2-nitrophenylcarbamoyl)benzoate | 0.63
54 | Divinylstannanediyl bis 2-(4-methoxy-2-nitrophenylcarbamoyl)benzoate | 1.37

What follows are substances tested on Serratia marcescens (assay: Antibacterial activity against Serratia marcescens assessed as zone of inhibition by measuring activity index after 24 to 48 hrs by well diffusion method relative to amoxicillin).
Format: functional

Row | Substance | Activity index
55 | Dioctylstannanediyl bis 2-(4-methoxy-2-nitrophenylcarbamoyl)benzoate | 0.84
56 | Divinylstannanediyl bis 2-(4-methoxy-2-nitrophenylcarbamoyl)benzoate | 1.84

The substances below were run on Pseudomonas aeruginosa (assay: Antibacterial activity against Pseudomonas aeruginosa assessed as zone of inhibition by measuring activity index after 24 to 48 hrs by well diffusion method relative to ampicillin).
Format: functional, organism-based

Row | Substance | Activity_index
57 | Dioctylstannanediyl bis 2-(4-methoxy-2-nitrophenylcarbamoyl)benzoate | inactive
58 | Divinylstannanediyl bis 2-(4-methoxy-2-nitrophenylcarbamoyl)benzoate | inactive

These substances were tested on Escherichia coli (assay: Antibacterial activity against Escherichia coli assessed as zone of inhibition by measuring activity index after 24 to 48 hrs by well diffusion method relative to penicillin G).
Format: functional, organism-based

Row | Substance | Activity_index
59 | Dioctylstannanediyl bis 2-(4-methoxy-2-nitrophenylcarbamoyl)benzoate | inactive
60 | Divinylstannanediyl bis 2-(4-methoxy-2-nitrophenylcarbamoyl)benzoate | inactive

The substances below were run on Escherichia coli (assay: Antibacterial activity against Escherichia coli assessed as zone of inhibition by measuring activity index after 24 to 48 hrs by well diffusion method relative to ampicillin).
Format: functional, organism-based

Row | Substance | Activity_index
61 | Dioctylstannanediyl bis 2-(4-methoxy-2-nitrophenylcarbamoyl)benzoate | inactive
62 | Divinylstannanediyl bis 2-(4-methoxy-2-nitrophenylcarbamoyl)benzoate | inactive

The substances below were run on Escherichia coli (assay: Antibacterial activity against Escherichia coli assessed as zone of inhibition by measuring activity index after 24 to 48 hrs by well diffusion method relative to amoxicillin).
Format: functional, organism-based

Row | Substance | Activity_index
63 | Dioctylstannanediyl bis 2-(4-methoxy-2-nitrophenylcarbamoyl)benzoate | inactive
64 | Divinylstannanediyl bis 2-(4-methoxy-2-nitrophenylcarbamoyl)benzoate | inactive

What follows are substances tested on NCI-H157 (assay: Cytotoxicity against human NCI-H157 cells after 48 hrs by sulforhodamine B assay).
Format: functional, cell-based

Row | Substance | Activity
65 | Dioctylstannanediyl bis 2-(4-methoxy-2-nitrophenylcarbamoyl)benzoate | Dose-dependent effect
66 | Divinylstannanediyl bis 2-(4-methoxy-2-nitrophenylcarbamoyl)benzoate | Dose-dependent effect
